# Assay results taken from article PMC12152189, “Structure of a stripped-down and tuned-up far-red phycobilisome” (Communications Biology, 2025).
# What was measured:
# Test in all cases: cryo-EM structure, […] Å
# Assay type in all cases: binding
# ApcB2 (in FR-APC) = target: T1, ApcB2 (in FR-APC) (Chroococcidiopsis thermalis, UniProt K9TVG8); conditions: covalent; several sites, proximal (with ApcC) and distal (without ApcC); pH 6.5
# T1 construct: gene Chro_1033; native purification from far-red-grown cells; intact bicylindrical FR-APC; ApcC contacts the proximal ApcB2 bilin only; with Far-red allophycocyanin alpha subunit ApcD5
# T1 sequence (K9TVG8 1-161): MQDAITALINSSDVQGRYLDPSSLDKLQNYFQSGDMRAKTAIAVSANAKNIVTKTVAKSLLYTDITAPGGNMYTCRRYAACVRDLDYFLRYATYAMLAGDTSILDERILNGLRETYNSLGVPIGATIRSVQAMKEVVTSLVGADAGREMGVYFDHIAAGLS
# T1 sequence (K9U510 1-67 partner): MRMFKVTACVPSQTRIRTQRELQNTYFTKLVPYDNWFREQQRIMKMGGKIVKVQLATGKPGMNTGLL
# ApcF2 (in FR-APC) = target: T2, ApcF2 (in FR-APC) (Chroococcidiopsis thermalis, UniProt K9TY40); conditions: non-covalent (no Cys linkage); ZZZ,ssa; Arg77 and Arg84 contact propionates; pH 6.5
# T2 construct: gene Chro_1766; native purification from far-red-grown cells; intact bicylindrical FR-APC; heterodimer with ApcE2; with Far-red phycobilisome core-membrane linker protein ApcE2 (phycobiliprotein ApcE)
# T2 sequence (K9TY40 1-169): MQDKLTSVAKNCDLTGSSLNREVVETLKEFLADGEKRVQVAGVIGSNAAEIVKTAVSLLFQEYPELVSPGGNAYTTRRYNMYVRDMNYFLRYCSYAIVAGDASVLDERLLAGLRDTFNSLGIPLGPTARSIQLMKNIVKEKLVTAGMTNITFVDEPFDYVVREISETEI
# T2 sequence (K9TUP3 1-780 partner): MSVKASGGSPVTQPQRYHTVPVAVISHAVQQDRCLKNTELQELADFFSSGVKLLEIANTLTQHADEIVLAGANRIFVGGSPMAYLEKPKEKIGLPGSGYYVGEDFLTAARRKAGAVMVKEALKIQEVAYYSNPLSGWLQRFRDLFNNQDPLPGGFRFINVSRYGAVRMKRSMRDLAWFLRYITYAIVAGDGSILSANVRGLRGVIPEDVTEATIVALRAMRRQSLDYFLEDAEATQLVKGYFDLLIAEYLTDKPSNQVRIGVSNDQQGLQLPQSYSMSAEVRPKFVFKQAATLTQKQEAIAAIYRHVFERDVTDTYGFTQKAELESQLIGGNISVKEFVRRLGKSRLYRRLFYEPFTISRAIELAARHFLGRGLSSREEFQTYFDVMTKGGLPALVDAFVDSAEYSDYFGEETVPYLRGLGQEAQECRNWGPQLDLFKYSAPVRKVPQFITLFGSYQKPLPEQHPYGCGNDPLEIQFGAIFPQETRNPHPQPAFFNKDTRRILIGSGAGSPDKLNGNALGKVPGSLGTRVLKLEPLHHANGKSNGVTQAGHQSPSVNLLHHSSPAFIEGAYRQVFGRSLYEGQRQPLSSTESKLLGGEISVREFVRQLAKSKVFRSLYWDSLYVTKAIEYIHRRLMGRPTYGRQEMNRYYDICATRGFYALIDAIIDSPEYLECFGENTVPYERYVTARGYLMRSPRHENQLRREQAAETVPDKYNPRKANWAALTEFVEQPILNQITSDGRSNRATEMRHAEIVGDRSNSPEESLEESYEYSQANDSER
# ApcE2 (in FR-APC) = target: T3, ApcE2 (in FR-APC) (Chroococcidiopsis thermalis, UniProt K9TUP3); conditions: non-covalent (no Cys linkage); ZZZ,ssa; ApcF2 Thr76 H-bonds ring D; pH 6.5
# T3 construct: gene Chro_1035; native purification from far-red-grown cells; intact bicylindrical FR-APC; ApcE2 in second (alpha-beta)3 trimer
# T3 sequence (K9TUP3 1-780): T2 sequence (K9TUP3 1-780 partner)
# T3 sequence (K9TY40 1-169 partner): T2 sequence (K9TY40 1-169)
structure (smiles),measurement,setting,value
C/C=C1/C(=C/c2[nH]c(/C=C3N=C(/C=C4\NC(=O)C(CC)=C4C)C(C)=C\3CCC(=O)O)c(CCC(=O)O)c2C)NC(=O)[C@@H]1C [phycocyanobilin],"cryo-EM structure, 2.51 Å",ApcB2 (in FR-APC),ApcB2 is represented in green while phycocyanobilin is represented in blue
same,"cryo-EM structure, 2.51 Å",ApcF2 (in FR-APC),"in ApcF2 the pigment is in ZZZ,ssa conformation"
same,"cryo-EM structure, 2.51 Å",ApcE2 (in FR-APC),the bilin pigments in ApcE2 and ApcF2 are non-covalently bound
